According to patent US12371454B2, “Cyclic peptide compound having Kras inhibitory action” (priority 2019, dated 2025):
pIC50: −log10 of the molar value. Starred links: 1 amine or outer side, 2 acyl side, 3 side chain; linkers in the order of their positions; H or OH if unused. Positions of bridges follow the written chain, without caps; N, C: chain ends. Non-standard residues stand in square brackets, D forms with d. Residues, ends and D or L forms follow the SMILES beside them. *: point of attachment. hPhe(3-Cl-4-CF3) = N[C@@H](CCc1ccc(C(F)(F)F)c(Cl)c1)C(=O)O; NMePhe(4-CF3) = CN[C@@H](Cc1ccc(C(F)(F)F)cc1)C(=O)O; X23 = CN([C@@H](Cc1ccccc1OC(F)(F)F)C(=O)[*:2])[*:1]; NMePhe(3-Cl) = CN[C@@H](Cc1cccc(Cl)c1)C(=O)O; NMePhe(4-Br) = CN[C@@H](Cc1ccc(Br)cc1)C(=O)O; NMePhe(3-Me) = CN[C@@H](Cc1cccc(C)c1)C(=O)O; NMePhe(4-Me) = CN[C@@H](Cc1ccc(C)cc1)C(=O)O; NMePhe(2-Cl) = CN[C@@H](Cc1ccccc1Cl)C(=O)O; NMePhe(4-F) = CN[C@@H](Cc1ccc(F)cc1)C(=O)O; NMedβ3hAla = C[C@H](CC(=O)[*:2])N(C)[*:1]; NMehPhe = CN[C@@H](CCc1ccccc1)C(=O)O; NMeY = CN[C@@H](Cc1ccc(O)cc1)C(=O)O; NMeCha = CN[C@@H](CC1CCCCC1)C(=O)O; NMeF = CN[C@@H](Cc1ccccc1)C(=O)O; NMeD = CN[C@@H](CC(=O)O)C(=O)O; NMeL = CN[C@@H](CC(C)C)C(=O)O; NMeV = CN[C@H](C(=O)O)C(C)C; d(β3hA) = C[C@@H](N)CC(=O)O; NMeAbu = CC[C@H](NC)C(=O)O; NMeA = CN[C@@H](C)C(=O)O; Piperidide = C1CCN(*)CC1; Ac5c = NC1(C(=O)O)CCCC1; Aze = O=C(O)[C@@H]1CCN1; CF3 = FC(F)(F)*; Sar = CNCC(=O)O

Legend:
[1] = molecular target: T1, Kras and SOS1 (biotin-tagged human Kras loaded with GDP, His-tagged human SOS1) (Homo sapiens, UniProt P01116, G12D); test: Protein-protein interaction inhibition between Kras and SOS1 (KrasGl2D-SOS PPI) using AlphaScreen; type: binding; conditions: AlphaScreen; biotin-tagged human Kras loaded with GDP, His-tagged human SOS1; read-out: KRAS G12D-SOS PPI IC50
T1 construct: made in house; host or cells: E. coli (stated for Kras only)
T1 sequence (P01116 1-188 isoform P01116-2 G12D): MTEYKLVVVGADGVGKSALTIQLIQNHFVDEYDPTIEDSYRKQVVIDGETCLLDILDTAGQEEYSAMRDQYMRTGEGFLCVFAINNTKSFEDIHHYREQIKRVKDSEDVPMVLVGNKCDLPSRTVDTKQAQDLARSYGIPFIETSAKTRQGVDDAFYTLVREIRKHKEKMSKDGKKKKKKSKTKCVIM
Outline: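 Read-out is acceptor-bead light at 520-620 nm, arising when 680 nm-irradiated nickel donor beads pass singlet oxygen to streptavidin acceptors. The bead pair links His-tagged SOS1 with biotin-tagged, GDP-bound Kras from E. coli.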

[2] = system: Human pancreatic cancer cell line AsPC-1; test: Measurement of AsPC-1 cell growth inhibition (AsPC-1 CGI); type: cell-based; conditions: 96 h
Outline: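 AsPC-1 cells in 15% FBS RPMI-1640 were exposed to test compound for 96 hours at 37° C, with CellTiter-Glo as endpoint.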

Compound	pIC50 [1]	pIC50 [2]
CC[C@H](C)[C@@H]1NC(=O)[C@H](CC(C)C)N(C)C(=O)C[C@@H](C)NC(=O)[C@H](C(C)C)N(C)C(=O)C2(CCCC2)NC(=O)[C@@H]2CCCN2C(=O)[C@H](CCc2ccc(C(F)(F)F)c(Cl)c2)NC(=O)CN(C)C(=O)[C@H](Cc2ccc(F)cc2)N(C)C(=O)CN(C)C(=O)CN(C)C1=O [Compound 1602] (cyclo([Ac5c][NMeV][d(β3hA)][NMeL]I[Sar][Sar][NMePhe(4-F)][Sar][hPhe(3-Cl-4-CF3)]P))	8.20	6.30 to 7.00
CC[C@H](C)[C@@H]1NC(=O)[C@H](CC(C)C)N(C)C(=O)C[C@@H](C)N(C)C(=O)[C@H](C(C)C)N(C)C(=O)C2(CCCC2)NC(=O)[C@@H]2CCCN2C(=O)[C@H](CCc2ccc(C(F)(F)F)c(Cl)c2)NC(=O)CN(C)C(=O)[C@H](Cc2ccccc2)N(C)C(=O)CN(C)C(=O)CN(C)C1=O [Compound 1604] (cyclo([Ac5c][NMeV][NMedβ3hAla][NMeL]I[Sar][Sar][NMeF][Sar][hPhe(3-Cl-4-CF3)]P))	8.24	7.00 to 7.30
CC[C@H](C)[C@@H]1NC(=O)[C@H](CC(C)C)N(C)C(=O)C[C@@H](C)NC(=O)[C@H](C(C)C)N(C)C(=O)C2(CCCC2)NC(=O)[C@@H]2CCCN2C(=O)[C@H](CCc2ccc(C(F)(F)F)c(Cl)c2)NC(=O)CN(C)C(=O)[C@H](Cc2ccc(OC)cc2)N(C)C(=O)CN(C)C(=O)CN(C)C1=O [Compound 1605] (cyclo([Ac5c][NMeV][d(β3hA)][NMeL]I[Sar][Sar][NMeY](Me)[Sar][hPhe(3-Cl-4-CF3)]P))	7.92	6.30 to 7.00
CC[C@H](C)[C@@H]1NC(=O)[C@H](CC)N(C)C(=O)C[C@@H](C)NC(=O)[C@H](C(C)C)N(C)C(=O)C2(CCCC2)NC(=O)[C@@H]2CCCN2C(=O)[C@H](CCc2ccc(C(F)(F)F)c(Cl)c2)NC(=O)CN(C)C(=O)[C@H](CC2CCCCC2)N(C)C(=O)[C@@H]2CCN2C(=O)[C@H](C)N(C)C1=O [Compound 1607] (cyclo([Ac5c][NMeV][d(β3hA)][NMeAbu]I[NMeA][Aze][NMeCha][Sar][hPhe(3-Cl-4-CF3)]P))	7.55	6.30 to 7.00
CC[C@H](C)[C@@H]1NC(=O)[C@H](CC(C)C)N(C)C(=O)C[C@@H](C(=O)N2CCCCC2)N(C)C(=O)[C@H](C(C)C)N(C)C(=O)C2(CCCC2)NC(=O)[C@@H]2CCCN2C(=O)[C@H](CCc2ccc(C(F)(F)F)c(Cl)c2)NC(=O)CN(C)C(=O)[C@H](CCc2ccccc2)N(C)C(=O)CN(C)C(=O)CN(C)C1=O [Compound 1608] ([NMeL]I[Sar][Sar][NMehPhe][Sar][hPhe(3-Cl-4-CF3)]P[Ac5c][NMeV][NMeD]-Piperidide; lactam N-11)	8.24	6.30 to 7.00
CC[C@H](C)[C@@H]1NC(=O)[C@H](CC(C)C)N(C)C(=O)C[C@@H](C(=O)N2CCCCC2)N(C)C(=O)[C@H](C(C)C)N(C)C(=O)C2(CCCC2)NC(=O)[C@@H]2CCCN2C(=O)[C@H](CCc2ccc(C(F)(F)F)c(Cl)c2)NC(=O)CN(C)C(=O)[C@H](Cc2cccc(Cl)c2)N(C)C(=O)CN(C)C(=O)CN(C)C1=O [Compound 1611] ([NMeL]I[Sar][Sar][NMePhe(3-Cl)][Sar][hPhe(3-Cl-4-CF3)]P[Ac5c][NMeV][NMeD]-Piperidide; lactam N-11)	8.49	6.30 to 7.00
CC[C@H](C)[C@@H]1NC(=O)[C@H](CC(C)C)N(C)C(=O)C[C@@H](C)N(C)C(=O)[C@H](C(C)C)N(C)C(=O)C2(CCCC2)NC(=O)[C@@H]2CCCN2C(=O)[C@H](CCc2ccc(C(F)(F)F)c(Cl)c2)NC(=O)CN(C)C(=O)[C@H](Cc2ccccc2Cl)N(C)C(=O)CN(C)C(=O)CN(C)C1=O [Compound 1615] (cyclo([Ac5c][NMeV][NMedβ3hAla][NMeL]I[Sar][Sar][NMePhe(2-Cl)][Sar][hPhe(3-Cl-4-CF3)]P))	7.40	6.30 to 7.00
CC[C@H](C)[C@@H]1NC(=O)[C@H](CC(C)C)N(C)C(=O)C[C@@H](C)N(C)C(=O)[C@H](C(C)C)N(C)C(=O)C2(CCCC2)NC(=O)[C@@H]2CCCN2C(=O)[C@H](CCc2ccc(C(F)(F)F)c(Cl)c2)NC(=O)CN(C)C(=O)[C@H](Cc2ccc(C(F)(F)F)cc2)N(C)C(=O)CN(C)C(=O)CN(C)C1=O [Compound 1617] (cyclo([Ac5c][NMeV][NMedβ3hAla][NMeL]I[Sar][Sar][NMePhe(4-CF3)][Sar][hPhe(3-Cl-4-CF3)]P))	8.57	7.00 to 7.30
CC[C@H](C)[C@@H]1NC(=O)[C@H](CC(C)C)N(C)C(=O)C[C@@H](C)NC(=O)[C@H](C(C)C)N(C)C(=O)C2(CCCC2)NC(=O)[C@@H]2CCCN2C(=O)[C@H](CCc2ccc(C(F)(F)F)c(Cl)c2)NC(=O)CN(C)C(=O)[C@H](Cc2ccc(C(F)(F)F)cc2)N(C)C(=O)CN(C)C(=O)CN(C)C1=O [Compound 1620] (cyclo([Ac5c][NMeV][d(β3hA)][NMeL]I[Sar][Sar][NMePhe(4-CF3)][Sar][hPhe(3-Cl-4-CF3)]P))	8.27	7.00 to 7.30
CC[C@H](C)[C@@H]1NC(=O)[C@H](CC(C)C)N(C)C(=O)C[C@@H](C)N(C)C(=O)[C@H](C(C)C)N(C)C(=O)C2(CCCC2)NC(=O)[C@@H]2CCCN2C(=O)[C@H](CCc2ccc(C(F)(F)F)c(Cl)c2)NC(=O)CN(C)C(=O)[C@H](Cc2cccc(Cl)c2)N(C)C(=O)CN(C)C(=O)CN(C)C1=O [Compound 1621] (cyclo([Ac5c][NMeV][NMedβ3hAla][NMeL]I[Sar][Sar][NMePhe(3-Cl)][Sar][hPhe(3-Cl-4-CF3)]P))	8.14	7.00 to 7.30
CC[C@H](C)[C@@H]1NC(=O)[C@H](CC(C)C)N(C)C(=O)C[C@@H](C)NC(=O)[C@H](C(C)C)N(C)C(=O)C2(CCCC2)NC(=O)[C@@H]2CCCN2C(=O)[C@H](CCc2ccc(C(F)(F)F)c(Cl)c2)NC(=O)CN(C)C(=O)[C@H](Cc2ccc(Br)cc2)N(C)C(=O)CN(C)C(=O)CN(C)C1=O [Compound 1625] (cyclo([Ac5c][NMeV][d(β3hA)][NMeL]I[Sar][Sar][NMePhe(4-Br)][Sar][hPhe(3-Cl-4-CF3)]P))	8.14	6.30 to 7.00
CC[C@H](C)[C@@H]1NC(=O)[C@H](CC(C)C)N(C)C(=O)C[C@@H](C(=O)N2CCCCC2)N(C)C(=O)[C@H](C(C)C)N(C)C(=O)C2(CCCC2)NC(=O)[C@@H]2CCCN2C(=O)[C@H](CCc2ccc(C(F)(F)F)c(Cl)c2)NC(=O)CN(C)C(=O)[C@H](Cc2cccc(C)c2)N(C)C(=O)CN(C)C(=O)CN(C)C1=O [Compound 1626] ([NMeL]I[Sar][Sar][NMePhe(3-Me)][Sar][hPhe(3-Cl-4-CF3)]P[Ac5c][NMeV][NMeD]-Piperidide; lactam N-11)	8.36	6.30 to 7.00
CC[C@H](C)[C@@H]1NC(=O)[C@H](CC(C)C)N(C)C(=O)C[C@@H](C(=O)N2CCCCC2)N(C)C(=O)[C@H](C(C)C)N(C)C(=O)C2(CCCC2)NC(=O)[C@@H]2CCCN2C(=O)[C@H](CCc2ccc(C(F)(F)F)c(Cl)c2)NC(=O)CN(C)C(=O)[C@H](Cc2ccc(C(F)(F)F)cc2)N(C)C(=O)CN(C)C(=O)CN(C)C1=O [Compound 1629] ([NMeL]I[Sar][Sar][NMePhe(4-CF3)][Sar][hPhe(3-Cl-4-CF3)]P[Ac5c][NMeV][NMeD]-Piperidide; lactam N-11)	8.60	7.00 to 7.30
CC[C@H](C)[C@@H]1NC(=O)[C@H](CC(C)C)N(C)C(=O)C[C@@H](C(=O)N2CCCCC2)N(C)C(=O)[C@H](C(C)C)N(C)C(=O)C2(CCCC2)NC(=O)[C@@H]2CCCN2C(=O)[C@H](CCc2ccc(C(F)(F)F)c(Cl)c2)NC(=O)CN(C)C(=O)[C@H](Cc2ccc(OC(F)(F)F)cc2)N(C)C(=O)CN(C)C(=O)CN(C)C1=O [Compound 1630] ([NMeL]I[Sar][Sar][NMeY](CF3)[Sar][hPhe(3-Cl-4-CF3)]P[Ac5c][NMeV][NMeD]-Piperidide; lactam N-11)	8.21	6.30 to 7.00
CC[C@H](C)[C@@H]1NC(=O)[C@H](CC(C)C)N(C)C(=O)C[C@@H](C(=O)N2CCCCC2)N(C)C(=O)[C@H](C(C)C)N(C)C(=O)C2(CCCC2)NC(=O)[C@@H]2CCCN2C(=O)[C@H](CCc2ccc(C(F)(F)F)c(Cl)c2)NC(=O)CN(C)C(=O)[C@H](Cc2ccc(F)cc2)N(C)C(=O)CN(C)C(=O)CN(C)C1=O [Compound 1631] ([NMeL]I[Sar][Sar][NMePhe(4-F)][Sar][hPhe(3-Cl-4-CF3)]P[Ac5c][NMeV][NMeD]-Piperidide; lactam N-11)	8.30	6.30 to 7.00
CC[C@H](C)[C@@H]1NC(=O)[C@H](CC(C)C)N(C)C(=O)C[C@@H](C)NC(=O)[C@H](C(C)C)N(C)C(=O)C2(CCCC2)NC(=O)[C@@H]2CCCN2C(=O)[C@H](CCc2ccc(C(F)(F)F)c(Cl)c2)NC(=O)CN(C)C(=O)[C@H](Cc2ccc(C)cc2)N(C)C(=O)CN(C)C(=O)CN(C)C1=O [Compound 1632] (cyclo([Ac5c][NMeV][d(β3hA)][NMeL]I[Sar][Sar][NMePhe(4-Me)][Sar][hPhe(3-Cl-4-CF3)]P))	8.54	6.30 to 7.00
CC[C@H](C)[C@@H]1NC(=O)[C@H](CC(C)C)N(C)C(=O)C[C@@H](C)N(C)C(=O)[C@H](C(C)C)N(C)C(=O)C2(CCCC2)NC(=O)[C@@H]2CCCN2C(=O)[C@H](CCc2ccc(C(F)(F)F)c(Cl)c2)NC(=O)CN(C)C(=O)[C@H](Cc2ccccc2OC(F)(F)F)N(C)C(=O)CN(C)C(=O)CN(C)C1=O [Compound 1633] (cyclo([Ac5c][NMeV][NMedβ3hAla][NMeL]I[Sar][Sar][X23][Sar][hPhe(3-Cl-4-CF3)]P))	7.30	6.30 to 7.00
CC[C@H](C)[C@@H]1NC(=O)[C@H](CC(C)C)N(C)C(=O)C[C@@H](C)N(C)C(=O)[C@H](C(C)C)N(C)C(=O)C2(CCCC2)NC(=O)[C@@H]2CCCN2C(=O)[C@H](CCc2ccc(C(F)(F)F)c(Cl)c2)NC(=O)CN(C)C(=O)[C@H](CCc2ccccc2)N(C)C(=O)CN(C)C(=O)CN(C)C1=O [Compound 1634] (cyclo([Ac5c][NMeV][NMedβ3hAla][NMeL]I[Sar][Sar][NMehPhe][Sar][hPhe(3-Cl-4-CF3)]P))	7.89	7.00 to 7.30
